Series [1] has as its target human carbonic anhydrase-2 (Homo sapiens (Human), UniProt P00918). Kind of series: Carbonic anhydrase assay, carbonic anhydrase-2 (Method 4). Type of series: biochemical. To be noted: read-out: Inhibition of Carbonic anhydrase-2 IC50. How it is done: 4. Carbonic Anhydrase Assay
The principle of the assay is based on the hydrolysis of 4-nitrophenyl acetate by carbonic anhydrases (Pocker & Stone, Biochemistry, 1967, 6, 668), with subsequent photometric determination of the dye product 4-nitrophenolate at 400 nm by means of a 96-channel spectral photometer.
2 μL of the test compounds, dissolved in DMSO (100-fold final concentration), in a concentration range of 0.03-10 μmol/L (final), was pipetted as quadruplicates into the wells of a 96-hole microtiter plate. Wells that contained the solvent without test compounds were used as reference values (1. Wells without carbonic anhydrase for correction of the non-enzymatic hydrolysis of the substrate, and 2. Wells with carbonic anhydrase for determining the activity of the non-inhibited enzyme).
188 μL of assay buffer (10 mmol/L of Tris/HCl, pH 7.4, 80 mmol/L of NaCl), with or without 3 units/well of carbonic anhydrase-1 [=human carbonic anhydrase-1 (Sigma, #C4396)] in order to determine carbonic anhydrase-1 inhibition or 3 units/well of carbonic anhydrase-2 [=human carbonic anhydrase-2 (Sigma, #C6165)] for measuring carbonic anhydrase-2 inhibition, was pipetted into the wells of the microtiter plate.

Series [2] deals with MOLM-13 human acute myeloid leukemia cells. Kind of series: Proliferation assay, MOLM-13 (Cell Titre-Glo, Method 3). Type of series: cell-based. To be noted: MOLM-13, 72-hour exposure, read-out: Inhibition of MOLM-13 cell proliferation IC50. How it is done: Non-adherent MOLM-13 human acute myeloid leukemia cells (DSMZ ACC 554) were seeded at a density of 5,000 cells/well in a 96-well multititer plate in 100 μL of growth medium supplemented 10% fetal calf serum. After 24 hours, cell viability of one plate (zero-point plate) was determined with the Cell Titre-Glo Luminescent Cell Viability Assay (Promega), while 50 μL of test compound containing medium was added to the wells of the other plates (final concentrations in the range of 0.001-10 μM and DMSO controls; the final concentration of the solvent dimethyl sulfoxide was 0.5%). Cell viability was assessed after 72-hour exposure with the Cell Titre-Glo Luminescent Cell Viability Assay (Promega).

Series [3] in a line: In vivo pharmacokinetics in rats (Method 6). To be noted: male, Wistar, plasma; rat, iv dosing; read-out: t1/2: terminal half-life from in vivo rat study (converted). How it is done: 6. In Vivo Pharmacokinetics in Rats
For in vivo pharmacokinetic experiments test compounds were administered to male Wistar rats intravenously at doses of 0.3 to 1 mg/kg formulated as solutions using either rat plasma or solubilizers such as PEG400 in well-tolerated amounts.
For pharmacokinetics after intravenous administration test compounds were given as i.v. bolus and blood samples were taken at 2 min, 8 min, 15 min, 30 min, 45 min, 1 h, 2 h, 4 h, 6 h, 8 h and 24 h after dosing. […] Blood was collected into Lithium-Heparin tubes (Monovetten®, Sarstedt) and centrifuged for 15 min at 3000 rpm. An aliquot of 100 μL from the supernatant (plasma) was taken and precipitated by addition of 400 μL icecold acetonitril and frozen at −20° C. over night. Samples were subsequently thawed and centrifuged at 3000 rpm, 4° C. for 20 minutes. Aliquots of the supernatants were taken for analytical testing using an Agilent 1200 HPLC-system with LCMS/MS detection. PK parameters were calculated by non-compartmental analysis using a PK calculation software.
PK parameters derived from concentration-time profiles after i.v.: CLplasma: Total plasma clearance of test compound (in L/kg/h); CLblood: Total blood clearance of test compound: CLplasma*Cp/Cb (in L/kg/h) with Cp/Cb being the ratio of concentrations in plasma and blood, AUCnorm: Area under the concentration-time curve from t=0 h to infinity (extrapolated) divided by the administered dose (in kg*h/L); t½: terminal half-life (in h).

Read-outs that look alike come from different tables or passages of the source.

As for `CS(=N)(=O)Cc1cc(Cl)cc(Nc2ncc(F)c(-c3ccc(F)cc3F)n2)c1` (racemic) [Example 15, (rac)-N-{3-chloro-5-[(S-methylsulfonimidoyl)methyl]phenyl}-4-(2,4-difluorophenyl)-5-fluoropyrimidin-2-amine], in series [1], the IC50 was more than 10000 nM.

`CS(=O)(Cc1cc(Nc2ncc(F)c(-c3ccc(F)cc3F)n2)cc(S(F)(F)(F)(F)F)c1)=NC(N)=O` (single isomer, unassigned) [Example 33, 1-{[3-{[4-(2,4-Difluorophenyl)-5-fluoropyrimidin-2-yl]amino}-5-(pentafluoro-λ^6-sulfanyl)benzyl](methyl)oxido-λ^6-sulfanylidene}urea]: the IC50 in series [2] amounted to 200 nM.

As to `CS(=O)(Cc1cc(Nc2ncc(F)c(-c3ccc(F)cc3F)n2)cc(C(F)(F)F)c1)=NC#N` (single isomer, unassigned) [Example 2, {[3-{[4-(2,4-Difluorophenyl)-5-fluoropyrimidin-2-yl]amino}-5-(trifluoromethyl)benzyl](methyl)oxido-λ^6-sulfanylidene}cyanamide], the half-life in series [3] was 4.3 h.

For `CS(=O)(Cc1cc(Nc2ncc(F)c(-c3ccc(F)cc3F)n2)cc(S(F)(F)(F)(F)F)c1)=NC#N` (racemic) [Example 28, (rac)-{[3-{[4-(2,4-Difluorophenyl)-5-fluoropyrimidin-2-yl]amino}-5-(pentafluoro-λ^6-sulfanyl)benzyl](methyl)oxido-λ^6-sulfanylidene}cyanamide], the IC50 in series [2] (Homo sapiens, MOLM-13, 72 h) was 145 nM.

As to `CS(=N)(=O)Cc1cc(Nc2ncc(F)c(-c3ccc(F)cc3F)n2)cc(C(F)(F)F)c1` (racemic) [Example 4, (rac)-4-(2,4-Difluorophenyl)-5-fluoro-N-{3-[(S-methylsulfonimidoyl)methyl]-5-(trifluoromethyl)phenyl}pyrimidin-2-amine], in series [1], the IC50 was more than 10000 nM. Also, the half-life in series [3] was 4.5 h.

With `CS(=O)(Cc1cc(Nc2ncc(F)c(-c3ccc(F)cc3F)n2)cc(C(F)(F)F)c1)=NC#N` (racemic) [Example 1, (rac)-{[3-{[4-(2,4-Difluorophenyl)-5-fluoropyrimidin-2-yl]amino}-5-(trifluoromethyl)benzyl](methyl)oxido-λ^6-sulfanylidene}cyanamide], in series [1], the IC50 was more than 10000 nM.

Consider `CS(=O)(Cc1cc(Nc2ncc(F)c(-c3ccc(F)cc3F)n2)cc(C(F)(F)F)c1)=NC(N)=O` (racemic) [Example 7, (rac)-1-{[3-{[4-(2,4-Difluorophenyl)-5-fluoropyrimidin-2-yl]amino}-5-(trifluoromethyl)benzyl](methyl)oxido-λ^6-sulfanylidene}urea], for which the IC50 in series [1] is more than 10000 nM.

`CS(=N)(=O)Cc1cc(Nc2ncc(F)c(-c3ccc(F)cc3F)n2)cc(S(F)(F)(F)(F)F)c1` (single isomer, unassigned) [Example 32, 4-(2,4-Difluorophenyl)-5-fluoro-N-{3-[(S-methylsulfonimidoyl)methyl]-5-(pentafluoro-λ^6-sulfanyl)phenyl}pyrimidin-2-amine]: the IC50 in series [2] came to 165 nM. For the same compound, the half-life in series [3] was 15 h.

The record behind these values is patent US9499492B2, “4-(ortho)-fluorophenyl-5-fluoropyrimidin-2-yl amines containing a sulfoximine group” (BAYER PHARMA AKTIENGESELLSCHAFT, priority 2012, dated 2016).
